Data published in patent US20070167478A1, “Biomarkers for sensitivity of proliferative diseases to mtor inhibitors” (priority 2003, published 2007).

Experiments:
Type in all cases: cell-based
MCF7 = assay: Antiproliferative assay, methylene blue staining, MCF7; conditions: MCF7 human tumor cell line, 4 days incubation
Method: (§1) Human tumor cell lines, e.g. the 40-O-(2-hydroxyethyl) rapamycin-sensitive MCF7, BT549 or LNCap lines (IC50 in sub nM range) versus the comparative 40-O-(2-hydroxyethyl) rapamycin-resistant PC3M line (IC50 in the >100 nM range), as well as cell lines with moderate rapamcyin-sensitivity (IC50 in the 1 nM-100 nM range) such as DU145, HCC1937 and MDA-MB231, are added to 96-well plates (500 to 5000 cells/well in 100 μl medium) and incubated for 24 hr. Subsequently, a dilution series of an mTOR inhibitor, e.g. a compound of formula A, e.g. 40-O-(2-hydroxyethyl) rapamycin is made in separate wells and the dilutions are added to the wells. The cells are then re-incubated for 4 days. Methylene blue staining is performed on day 5 and the amount of bound dye (proportional to the number of surviving cells that bind the dye) determined. IC50s are subsequently determined using Softmax 1.2.0 software.

BT549 = assay: Antiproliferative assay, methylene blue staining, BT549; conditions: BT549 human tumor cell line, 4 days incubation
Method: as §1

LNCap = assay: Antiproliferative assay, methylene blue staining, LNCap; conditions: LNCap human tumor cell line, 4 days incubation
Method: as §1

PC3M = assay: Antiproliferative assay, methylene blue staining, PC3M; conditions: PC3M human tumor cell line, 4 days incubation
Method: as §1

IC50 (MCF7): sub nM
IC50 (BT549): sub nM
IC50 (LNCap): sub nM
IC50 (PC3M): > 0.1 µM
Compound: CO[C@H]1C[C@@H]2CC[C@@H](C)[C@@](O)(O2)C(=O)C(=O)N2CCCC[C@H]2C(=O)O[C@H]([C@H](C)C[C@@H]2CC[C@@H](OCCO)[C@H](OC)C2)CC(=O)[C@H](C)/C=C(\C)[C@@H](O)[C@@H](OC)C(=O)[C@H](C)C[C@H](C)/C=C/C=C/C=C/1C [40-O-(2-hydroxyethyl) rapamycin]
